Experimental data reported in patent publication US6147097A, “Imidazole derivatives as anti-HIV agents” (Shionogi & Co., Ltd., priority 1994, dated 2000).
≈ marks a conversion by molar mass, not a printed value. Where two headings read alike, the source gives them in different places.

Assays:
[1] = cytotoxicity in MT-4 cells (MTT, culture medium in place of HIV); format: cell-based; settings: human
Procedure, shortened: (§1)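 Uninfected readout: compound-treated MT-4 cultures, 3.5×10^4 cells/well, received medium in place of virus and were kept 5 days at 37° C. Viability measured by 1 h MTT reduction, solubilized formazan read at 560/690 nm relative to control wells.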

[2] = target: T1, purified recombinant HIV-1 reverse transcriptase (Human immunodeficiency virus type 1 group M subtype B, UniProt P04585); test: reverse transcriptase inhibition, poly(rA)/(dT) template primer, [3H]dTTP uptake; format: biochemical
T1 construct: purified recombinant HIV-1 reverse transcriptase; made in house; host or cells: Escherichia coli
Procedure, shortened: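 Inhibition reported as percent reduction of [3H]dTTP incorporation relative to solvent control, after 1 h at 37 °C at pH 8.3. Recombinant RT from E. coli, poly(rA) template with oligo(dT) primer, 4 μM unlabeled dTTP as substrate; product collected on DEAE filter mats.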

HIV (HTLV-IIIB strain) = test: microbe, parasite or virus in culture; format: cell-based; settings: Human immunodeficiency virus 1, IIIB, MT4, 120 h
Procedure, shortened: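 Protection from virus was read as viable-cell MTT conversion to formazan after 5 days at 37° C. The cultures contained MT-4 cells (3.5×10^4/well), compound dilutions and 60 pfu HIV per well.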

MT-4 cells = test: cytotoxicity in MT-4 cells (MTT, culture medium in place of HIV); format: cell-based; settings: human, mt-4 cells, 120 h
Procedure, shortened: as §1

[3] = MT-4 cells, no virus, 37° C., 5 days, MTT, Table 3, read-out: CC50
[4] = MT-4 cells, 60 pfu HIV per well, 37° C., 5 days, MTT, Tables 1 and 2, read-out: EC50

Compound	CC50 at 120 h [1, 3] [µg/mL]	IC50 [2] [µM]	EC50 (HIV (HTLV-IIIB strain)) [µg/mL]	EC50 (HIV (HTLV-IIIB strain); [4]) [µg/mL]	CC50 at 120 h ([1]; mt-4 cells) [µg/mL]	EC50 (head of Table 4; CC50 per Test Example 2) (MT-4 cells) [µg/mL]
CC(C)c1nc(COC(N)=O)n(Cc2ccccc2)c1Sc1cccc([N+](=O)[O-])c1 [Compound I-47, 1-benzyl-2-carbamoyloxymethyl-4-isopropyl-5-(3-nitrophenylthio)-1H-imidazole]	6.3 to 12.5 (≈ 14.8 to 29.3 µM)	2.3	0.002 (≈ 0.00469 µM)	–	–	–
CC(C)c1nc(CO)n(Cc2ccccc2)c1Sc1cc(Cl)cc(Cl)c1 [Compound I-16, [1-benzyl-5-(3,5-dichlorophenylthio)-4-isopropyl-1H-imidazol-2-yl]methanol]	12.5 to 25 (≈ 30.7 to 61.4 µM)	3.68	–	0.008 to 0.016 (≈ 0.0196 to 0.0393 µM)	–	–
Cc1nc(C(C)C)c(Sc2cc(Cl)cc(Cl)c2)n1C [Compound I-1, 5-(3,5-dichlorophenylthio)-1,2-dimethyl-4-isopropyl-1H-imidazole]	6.3 to 12.5 (≈ 20 to 39.6 µM)	3.81	–	0.008 (≈ 0.0254 µM)	–	–
CC(C)c1nc(COC(N)=O)n(Cc2cccnc2)c1Sc1cc(Cl)cc(Cl)c1 [Compound I-92, 2-carbamoyloxymethyl-5-(3,5-dichlorophenylthio)-4-isopropyl-1-(pyridin-3-yl)methyl-1H-imidazole]	–	0.775	0.001 (≈ 0.00222 µM)	–	12.5 to 24 (≈ 27.7 to 53.2 µM)	–
CC(C)c1nc(CCO)n(Cc2ccccc2[N+](=O)[O-])c1Sc1cc(Cl)cc(Cl)c1 [Compound 126c, 5-(3,5-Dichlorophenylthio)-2-(2-hydroxyethyl)-4-isopropyl-1-o-nitrobenzyl-1H-imidazole]	–	60.9	–	0.13 (≈ 0.279 µM)	6.3 (≈ 13.5 µM)	–
CC(O)Cn1c(CO)nc(C(C)C)c1Sc1cc(Cl)cc(Cl)c1 (stereo not shown) [Compound 141a, 5-(3,5-dichlorophenylthio)-2-hydroxymethyl-1-(2-hydroxypropyl)-4-isopropyl-1H-imidazole]	–	–	–	–	–	12.5 to 25
CC(C)c1nc(COC(N)=O)n(Cc2ccccc2)c1Sc1cc(Cl)cc(Cl)c1 [Compound I-45, 1-benzyl-2-carbamoyloxymethyl-5-(3,5-dichlorophenylthio)-4-isopropyl-1H-imidazole]	12.5 (≈ 27.8 µM)	1.44	0.004 to 0.008 (≈ 0.00888 to 0.0178 µM)	–	–	–
CC(C)c1nc(CO)n(Cc2ccccc2[N+](=O)[O-])c1Sc1cc(Cl)cc(Cl)c1 [Compound 103c, 5-(3,5-dichlorophenylthio)-2-hydroxymethyl-4-isopropyl-1-(o-nitrobenzyl)-1H-imidazole]	–	57.9	–	0.06 to 0.13 (≈ 0.133 to 0.287 µM)	6.3 to 12.5 (≈ 13.9 to 27.6 µM)	–
CC(C)c1nc(CCCOC(N)=O)n(C)c1Sc1cc(Cl)cc(Cl)c1 [Compound I-148, 2-(3-carbamoyloxypropyl)-5-(3,5-dichlorophenylthio)-4-isopropyl-1-methyl-1H-imidazole]	–	0.895	–	0.005 to 0.01 (≈ 0.0124 to 0.0249 µM)	6.3 to 12.5 (≈ 15.7 to 31.1 µM)	–
CCCn1c(COC(N)=O)nc(C(C)C)c1Sc1cc(Cl)cc(Cl)c1 [Compound I-51, 2-carbamoyloxymethyl-5-(3,5-dichlorophenylthio)-4-isopropyl-1-n-propyl-1H-imidazole]	6.3 to 12.5 (≈ 15.7 to 31.1 µM)	0.944	–	0.003 to 0.005 (≈ 0.00746 to 0.0124 µM)	–	–
CC(C)c1nc(CO)n(CC2CC2)c1Sc1cc(Cl)cc(Cl)c1 [Compound I-30, [1-cyclopropylmethyl-5-(3,5-dichlorophenylthio)-4-isopropyl-1H-imidazol-2-yl]methanol]	10 to 100 (≈ 26.9 to 269 µM)	2.45	–	0.005 to 0.01 (≈ 0.0135 to 0.0269 µM)	–	–
Cc1cc(C)cc(S(=O)(=O)c2c(C(C)C)nc(C)n2C)c1 [Compound I-105, 5-(3,5-dimethylphenylsulfonyl)-4-isopropyl-1,2-dimethyl-1H-imidazole]	50 to 100 (≈ 163 to 326 µM)	171	–	0.5 (≈ 1.63 µM)	–	–
CCn1c(CO)nc(C(C)C)c1Sc1cccc(Cl)c1 [Compound I-28, [1-ethyl-5-(3-chlorophenylthio)-4-isopropyl-1H-imidazol-2-yl]methanol]	12.5 (≈ 40.2 µM)	0.643	–	0.002 to 0.004 (≈ 0.00643 to 0.0129 µM)	–	–
CCn1c(COCCOC(C)=O)nc(C(C)C)c1Sc1cc(Cl)cc(Cl)c1 [Compound I-62, 2-{[5-(3,5-dichlorophenylthlio)-1-ethyl-4-isopropyl-1H-imidazol-2-yl]methoxy} ethyl acetate]	12.5 to 25	15.8	–	0.03 to 0.06	–	–
CCCn1c(COC(N)=O)nc(C(C)C)c1Sc1cccc(Cl)c1 [Compound I-54, 2-carbamoyloxymethyl-5-(3-chlorophenylthio)-4-isopropyl-1-n-propyl-1H-imidazole]	12.5 (≈ 34 µM)	1.25	0.004 (≈ 0.0109 µM)	–	–	–
Cc1ncccc1Cn1c(COC(N)=O)nc(C(C)C)c1Sc1cc(Cl)cc(Cl)c1 [Compound I-133, 2-carbamoyloxymethyl-5-(3,5-dichlorophenylthio)-4-isopropyl-1-(2-methylpyridin-3-ylmethyl)-1H-imidazole]	–	72.2	–	0.008 (≈ 0.0172 µM)	12.5 (≈ 26.9 µM)	–

Compound	CC50 at 120 h [1, 3] [µg/mL]	IC50 [2] [µM]	EC50 (HIV (HTLV-IIIB strain)) [µg/mL]	EC50 (HIV (HTLV-IIIB strain); [4]) [µg/mL]	CC50 at 120 h ([1]; mt-4 cells) [µg/mL]	EC50 (head of Table 4; CC50 per Test Example 2) (MT-4 cells) [µg/mL]
Cc1cc(C)cc(Sc2c(C(C)C)nc(C=O)n2C)c1 [Compound I-6, 5-(3,5-dimethylphenylthio)-4-isopropyl-1-methyl-1H-imidazole-2-carbaldehyde]	10 (≈ 34.7 µM)	127	–	0.03 to 0.06 (≈ 0.104 to 0.208 µM)	–	–
CC(C)c1nc(COCc2ccccc2)n(CCO)c1Sc1cc(Cl)cc(Cl)c1 [Compound 118c, 2-[2-benzyloxymethyl-5-(3,5-dichlorophenylthio)-4-i-sopropyl-1H-imidazol-1-yl]ethanol]	–	> 222	–	1 (≈ 2.22 µM)	6.3 to 12.5 (≈ 14 to 27.7 µM)	–
Cc1nc(C(C)C)c(Sc2cccc(Cl)c2)n1C [Compound I-3, 5-(3-chlorophenylthio)-1,2-dimethyl-4-isopropylimidazole]	12.5 (≈ 44.5 µM)	3.56	–	0.03 (≈ 0.107 µM)	–	–
CC(C)c1nc(CCOC(N)=O)n(Cc2ccc([N+](=O)[O-])cc2)c1Sc1cc(Cl)cc(Cl)c1 [Compound 128a, 2-(2-carbamoyloxyethyl)-5-(3,5-dichlorophenylthio)-4-isopropyl-1-(p-nitrobenzyl)-1H-imidazole]	–	104	–	3.1 to 6.3 (≈ 6.09 to 12.4 µM)	6.3 (≈ 12.4 µM)	–
CC(C)c1nc(CO)n(CCO)c1Sc1cc(Cl)cc(Cl)c1 [Compound 119b, 2-(5-(3,5-dichlorophenyl-thio)-2-hydroxymethyl-4-isopropyl-1H-imidazol-1-yl)ethanol]	–	1.72	–	< 0.008	12.5 to 25 (≈ 34.6 to 69.2 µM)	–
C=CCn1c(CO)nc(C(C)C)c1Sc1cc(Cl)cc(Cl)c1 [Compound I-19, [1-allyl-5-(3,5-dichlorophenylthio)-4-isopropyl-1H-imidazol-2-yl]methanol]	10 to 100 (≈ 28 to 280 µM)	2.02	0.004 to 0.008 (≈ 0.0112 to 0.0224 µM)	–	–	–
CC(C)c1nc(CO)n(C)c1Sc1cccc([N+](=O)[O-])c1 [Compound I-14, [4-isopropyl-1-methyl-5-(3-nitrophenylthio)-1H-imidazol-2-yl]methanol]	12.5 to 25 (≈ 40.7 to 81.3 µM)	4.23	–	0.03 (≈ 0.0976 µM)	–	–
C=CCn1c(COC(N)=O)nc(C(C)C)c1Sc1cccc([N+](=O)[O-])c1 [Compound I-48, 1-allyl-2-carbamoyloxymethyl-4-isopropyl-5-(3-nitrophenylthio)-1H-imidazole]	25 to 50 (≈ 66.4 to 133 µM)	1.2	–	0.016 (≈ 0.0425 µM)	–	–
CC(C)c1nc(CO)n(Cc2cccs2)c1Sc1cc(Cl)cc(Cl)c1.Cl [Compound I-126, 5-(3,5-dichlorophenylthio)-2-hydroxymethyl-4-isopropyl-1-(2-thienylmethyl)-1H-imidazole hydrochloride]	–	30.9	–	0.03	12.5 to 25	–
CCn1c(CO)nc(C(C)C)c1Sc1cccc([N+](=O)[O-])c1 [Compound I-23, [1-ethyl-4-isopropyl-5-(3-nitrophenylthio)-1H-imidazol-2-yl]methanol]	25 (≈ 77.8 µM)	0.996	–	0.004 (≈ 0.0124 µM)	–	–
Cc1nc(C(C)C(=O)O)c(Sc2cccc(Cl)c2)n1C (stereo not shown) [Compound I-99]	> 100	> 322	–	6.3 (≈ 20.3 µM)	–	–
CCCCn1c(CO)nc(C(C)C)c1Sc1cc(Cl)cc(Cl)c1 [Compound I-15, [1-n-butyl-5-(3,5-dichlorophenylthio)-4-isopropyl-1H-imidazol-2-yl]methanol]	6.3 to 12.5 (≈ 16.9 to 33.5 µM)	2.01	–	0.005 to 0.01 (≈ 0.0134 to 0.0268 µM)	–	–
CC(C)c1nc(CO)n(CCCCCc2ccccc2)c1Sc1cc(Cl)cc(Cl)c1 [Compound I-124, 5-(3,5-dichlorophenylthio)-2-hydroxymethyl-4-isopropyl-1-(5-phenylpentyl)-1H-imidazole]	–	> 216	–	0.25 (≈ 0.539 µM)	12.5 (≈ 27 µM)	–
CC(=O)OCCOCc1nc(C(C)C)c(Sc2cc(Cl)cc(Cl)c2)n1C [Compound I-60, 2-{[5-(3,5-dichlorophenylthio)-4-isopropyl-1-methylimidazol-2-yl]methoxy} ethyl acetate]	12.5 to 25	> 240	–	≥ 0.5	–	–
CCn1c(CO)nc(C(C)C)c1Sc1cc(F)cc(F)c1 [Compound I-36, [5-(3,5-difluorophenylthio)-1-ethyl-4-isopropyl-1H-imidazol-2-yl]methanol]	10 to 100 (≈ 32 to 320 µM)	0.576	0.002 (≈ 0.0064 µM)	–	–	–
